# Assay results published in patent US20200131669A1, “CYCLIC PEPTIDE COMPOUND HAVING HIGH MEMBRANE PERMEABILITY, AND LIBRARY CONTAINING SAME” (Chugai Seiyaku Kabushiki Kaisha, priority 2017, published 2020).
# Positions of bridges follow the written chain, without caps; N, C: chain ends. Non-standard residues stand in square brackets, D forms with d. Residues, ends and D or L forms follow the SMILES beside them. *: point of attachment. hPhe(3-Cl) = N[C@@H](CCc1cccc(Cl)c1)C(=O)O; hPhe(4-Cl) = N[C@@H](CCc1ccc(Cl)cc1)C(=O)O; hhPhe = N[C@@H](CCCc1ccccc1)C(=O)O; NMeF = CN[C@@H](Cc1ccccc1)C(=O)O; NMeI = CC[C@H](C)[C@H](NC)C(=O)O; NMeL = CN[C@@H](CC(C)C)C(=O)O; NMeV = CN[C@H](C(=O)O)C(C)C; NMeA = CN[C@@H](C)C(=O)O; Piperidide = C1CCN(*)CC1; Sar = CNCC(=O)O; tBu = CC(C)(C)*
# Assay: Caco-2 membrane permeability, improved method as used in the following Examples (96-well, 20 to 24 h preincubation)
# Format: in vitro ADME
# Details: Caco-2, Caco-2; for Papp A→B at 180 min: human
# Procedure, shortened: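 Papp (cm/sec) was derived from LC/MS of basal samples collected 180 min after apical dosing in FaSSIF/HBSS pH 6.0 with 1% DMSO, against a basal HBSS pH 7.4 receiver containing 4% BSA. Three-week Caco-2 cultures were first preincubated with compound in DMEM+FaSSIF at 37 °C for 20–24 h.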
SMILES,Papp A→B at 180 min [×10⁻⁶ cm/s],Papp A→B [×10⁻⁶ cm/s]
CC(C)C[C@H]1C(=O)N[C@H](C(=O)N2CCCCC2)CC(=O)N(C)[C@@H](C)C(=O)N[C@@H](CCc2cccc(Cl)c2)C(=O)N(C)[C@@H](CC(C)C)C(=O)N(C)[C@@H](CC(C)C)C(=O)N[C@@H](C)C(=O)N(C)[C@@H](Cc2ccccc2)C(=O)N(C)[C@@H](C(C)C)C(=O)N[C@@H]([C@@H](C)O)C(=O)N(C)CC(=O)N1C [pd356] ([NMeA][hPhe(3-Cl)][NMeL][NMeL]A[NMeF][NMeV]T[Sar][NMeL]D-Piperidide; lactam N-11),1.2,–
CC(C)C[C@H]1C(=O)N[C@@H](CCc2cccc(Cl)c2)C(=O)N(C)[C@@H](CC(C)C)C(=O)N[C@@H]([C@@H](C)O)C(=O)N(C)CC(=O)N(C)[C@@H](Cc2ccccc2)C(=O)N(C)[C@@H](CC(C)C)C(=O)N[C@@H](COC(C)(C)C)C(=O)N(C)[C@@H](C(C)C)C(=O)N[C@H](C(=O)N2CCCCC2)CC(=O)N(C)CC(=O)N1C [pd357] ([Sar][NMeL][hPhe(3-Cl)][NMeL]T[Sar][NMeF][NMeL]S(tBu)[NMeV]D-Piperidide; lactam N-11),1.3,–
CC(C)C[C@@H]1NC(=O)[C@H](CC(C)C)N(C)C(=O)CN(C)C(=O)[C@H]([C@@H](C)O)NC(=O)[C@H](CC(C)C)N(C)C(=O)[C@H](CCc2ccc(Cl)cc2)NC(=O)[C@H](C)N(C)C(=O)[C@@H](C(C)C)NC(=O)C[C@@H](C(=O)N2CCCCC2)NC(=O)[C@H](C(C)C)N(C)C(=O)[C@H](Cc2ccccc2)N(C)C1=O [pd360] ([dV][NMeA][hPhe(4-Cl)][NMeL]T[Sar][NMeL]L[NMeF][NMeV]D-Piperidide; lactam N-11),1.6,–
CC[C@H](C)[C@@H]1NC(=O)[C@H](Cc2ccccc2)N(C)C(=O)CN(C)C(=O)C[C@@H](C(=O)N2CCCCC2)NC(=O)[C@H](C(C)C)N(C)C(=O)[C@H](CCc2ccc(Cl)cc2)NC(=O)[C@H](CC(C)C)N(C)C(=O)[C@H](CC(C)C)N(C)C(=O)CN(C)C(=O)[C@H]([C@@H](C)O)NC(=O)[C@H](CC(C)C)N(C)C1=O [pd362] ([Sar][NMeF]I[NMeL]T[Sar][NMeL][NMeL][hPhe(4-Cl)][NMeV]D-Piperidide; lactam N-11),–,1
CC(C)C[C@H]1C(=O)N[C@@H](CCCc2ccccc2)C(=O)N(C)[C@@H](Cc2ccccc2)C(=O)N(C)[C@@H](C(C)C)C(=O)N[C@H](C(=O)N2CCCCC2)CC(=O)N[C@H](C)C(=O)N(C)[C@@H](Cc2ccccc2)C(=O)N[C@@H](C(C)C)C(=O)N(C)[C@@H](CC(C)C)C(=O)N[C@@H]([C@@H](C)O)C(=O)N(C)CC(=O)N1C [pd364] ([dA][NMeF]V[NMeL]T[Sar][NMeL][hhPhe][NMeF][NMeV]D-Piperidide; lactam N-11),–,1
CC(C)C[C@H]1C(=O)N[C@H](C(=O)N2CCCCC2)CC(=O)N(C)[C@@H](C)C(=O)N[C@@H](CCCc2ccccc2)C(=O)N(C)[C@@H](CC(C)C)C(=O)N(C)[C@@H](Cc2ccccc2)C(=O)N[C@@H](C)C(=O)N(C)[C@@H](Cc2ccccc2)C(=O)N(C)[C@@H](C(C)C)C(=O)N[C@@H]([C@@H](C)O)C(=O)N(C)CC(=O)N1C [pd365] ([NMeA][hhPhe][NMeL][NMeF]A[NMeF][NMeV]T[Sar][NMeL]D-Piperidide; lactam N-11),1.5,–
CC[C@H](C)[C@H]1C(=O)N[C@H](C(=O)N2CCCCC2)CC(=O)N(C)CC(=O)N(C)[C@@H](Cc2ccccc2)C(=O)N[C@@H](CCCc2ccccc2)C(=O)N(C)[C@@H](CC(C)C)C(=O)N[C@@H]([C@@H](C)O)C(=O)N(C)CC(=O)N(C)[C@@H](Cc2ccccc2)C(=O)N(C)[C@@H](CC(C)C)C(=O)N[C@@H](COC(C)(C)C)C(=O)N1C [pd366] ([Sar][NMeF][hhPhe][NMeL]T[Sar][NMeF][NMeL]S(tBu)[NMeI]D-Piperidide; lactam N-11),1.8,–
